Literature values, collected in patent publication US20170112865A1, “TREATMENT FOR MELANOMA” (The Board of Regents of the University of Texas System, priority 2014, published 2017).

Assays:
[1] = system: melanoma; conditions: at 5 years
[2] = system: BRAFV600E/k mutant advanced or malignant melanoma
[3] = system: BRAF V600E mutation-positive advanced melanoma; conditions: human, in vivo
[4] = in vivo
[5] = in vivo; remark: listed apart in the source

For interferon, the increase in survival [1] is listed as 3%.
In the case of CC(=O)Nc1cccc(-n2c(=O)n(C3CC3)c(=O)c3c(Nc4ccc(I)cc4F)n(C)c(=O)c(C)c32)c1 [Trametinib], the “Grade 3 adverse effect: hypertension” value ([2]; Trametinib arm) is given as 12%, the “Grade 3 adverse effect: rash” value ([2]; Trametinib arm) is given as 7% and the “most frequent adverse events” value ([2]; in vivo) is given as “skin rash, diarrhea, edema, hypertension, fatigue”.
In the case of CC(C)(C)c1nc(-c2cccc(NS(=O)(=O)c3c(F)cccc3F)c2F)c(-c2ccnc(N)n2)s1 [dabrafinib, Dabrafenib], the “time within which resistance occurs” value [3] is given as 6 to 7 months.
For C[C@H]1O[C@@H](O[C@H]2[C@@H](O)C[C@H](O[C@H]3[C@@H](O)C[C@H](O[C@H]4CC[C@@]5(C)[C@H](CC[C@@H]6[C@@H]5C[C@@H](O)[C@]5(C)[C@@H](C7=CC(=O)OC7)CC[C@]65O)C4)O[C@@H]3C)O[C@@H]2C)C[C@H](O)[C@@H]1O [digoxin, Digoxin], the half-life [4] is listed as “about 36 hours” and the “plasma concentration at which adverse effects are rare” value [5] is listed as under 0.8 ng/mL.
